Assay results from patent US4285956A, “Xanthene and thioxanthene derivatives, compositions thereof and treatment therewith” (priority 1978, dated 1981).
“Also recorded” adds a separate entry of the source.

Columns and labels:
[1] = Methylphenidate antagonism (mice biting corrugated paper); type: in vivo; conditions: Mus musculus, ip
Protocol: Methylphenidate antagonism (ED50 mg/kg i.p.)
Perspex observation cages without bottom and lid, consisting of 5 sections each measuring 12×25×30 cm. White corrugated paper. Mice, male, 18-25 g.
The test substance is given i.p. in the doses 0, 1/8, 1/32 and 1/128 of the determined "i.p. LD50". 3×2 mice are used for each dose level. Two or 24 hours after injection of test substance, methylphenidate, 60 mg/kg, is injected s.c. After administration of methylphenidate the mice are placed in the observation cages, 2 in each cage, where they remain for exactly 1 hour. The cages are placed on corrugated paper, the corrugations facing upwards. It is examined whether the mice have been biting the corrugated paper or not. […] If one or more of the control pairs have not been biting, the test has to be repeated on a new set of mice.
The result is stated in fractions: 0/3, 1/3, 2/3 and 3/3 where 0, 1, 2 and 3 are the number of pairs which have not been biting on receipt of the dose in question.
The results are calculated as the dose (ED50), which causes antagonism in 50% of the test animals.

[2] = Acute toxicity, LD50 in male rats following peroral administration; type: in vivo; conditions: for LD50 at 168 h: rat, in vivo, po, male rats, p.o., one week after administration, read-out: LD50 p.o. in male rats after 1 week
Protocol: The acute toxicity, as measured by LD50 in male rats following peroral administration, is much lower for Lu 13-135 when compared with piflutixol one week after administration. The figure for Lu 13-135 is >60 mg/kg against 1.5 mg/kg for piflutixol.

[3] = Neuroleptic effect: duration and strength (remarks of Table 2); type: in vivo; conditions: for Duration (remarks, words): duration of neuroleptic effect; for Duration (remarks, words) / Strength of effect (remarks, words): in words; for Strength of effect (remarks, words): strength of neuroleptic effect
Source text: The pharmacological testing of the novel xanthones and thioxanthenes of Formula I consisted of standard and reliable tests. […]

[4] = Amphetamine antagonism (stereotypy in rats); type: in vivo; conditions: Rattus norvegicus
[5] = Catalepsy wire mesh, rat, max.; type: in vivo, rats; conditions: for ED50: Rattus norvegicus, sc, read-out: Catalepsy wire mesh, rat, max. ED50
Protocol: Catalepsy wire mesh, rat, max. (ED50 mg/kg s.c.)
A vertical wire netting (50 cm×49 cm). The meshes (openings) of the netting are square (1 cm×1 cm). The wire diameter is 2 mm. Stop watch. Rats, male, 180-200 g.
The animals are labeled and used in groups of five. The test substance is injected subcutaneously (s.c.) (5 ml/kg) at 4 dose levels selected from the fixed dose scale.
The animals are placed in the middle of the vertical wire netting 60, 120, 180, 240, 300 and 360 minutes after injection of the test compound. The animals are considered cataleptic when they remain immobile during a period of 15 seconds. This cataleptic reaction is designated +. If the rats are "atonic" and passively slide down the wire mesh they are considered not cataleptic. If the animals climb up and down the wire mesh they are nor cataleptic. In both situations the designation - is used.

Sedation = conditions: in words; for b551 compared with piflutixol
[6] = Catalepsy wire mesh, rat, max.; type: in vivo; conditions: po, rats
[7] = mice, i.p., methylphenidate 60 mg/kg s.c. 2 h after test substance, read-out: Methylphenidate antagonism ED50, 2 h
[8] = mice, i.p., methylphenidate 60 mg/kg s.c. 24 h after test substance, read-out: Methylphenidate antagonism ED50, 24 h
[9] = ip, 24 h, read-out: Amphetamine antagonism ED50
[10] = rats, s.c., strongest effect within first 6 hours

O[C@H]1CC[C@H](CN2CCC(=C3c4ccc(F)cc4Sc4ccc(C(F)(F)F)cc43)CC2)CC1 [Lu 13-135, 1-(trans-4-hydroxycyclohexylmethyl)-4-(2-trifluoromethyl-6-fluoro-9-thioxanthenyliden)-piperidine]
ED50 [1, 7]: 0.32 mg/kg | ED50 [1, 8]: 0.19 mg/kg | Acute toxicity ([2]; in words, compared with related thioxanthenes (b9) or piflutixol): much lower | LD50 at 168 h [2]: > 60 mg/kg | Duration (remarks, words) [3]: very long acting; also recorded: long acting | Strength of effect (remarks, words) [3]: strong; also recorded: very strong | ED50 [4, 9]: 0.32 mg/kg | ED50 [5, 10]: 0.4 mg/kg | Cataleptic activity ([5]; in words): have a cataleptic activity

OCCC1CCN(CC/C=C2/c3ccc(F)cc3Sc3ccc(C(F)(F)F)cc32)CC1 [piflutixol, 2-trifluoromethyl-6-fluoro-9-(3-(4-(2-hydroxyethyl)-1-piperidyl)propylidene)-thioxanthene, reference compound]
Sedation / sedative effect (Sedation): very strong sedative effects | ED50 ([1]; 2 h, read-out: Methylphenidate antagonism ED50, 2 h): 0.03 mg/kg | ED50 ([1]; 24 h, read-out: Methylphenidate antagonism ED50, 24 h): 0.03 mg/kg | LD50 at 168 h [2]: 1.5 mg/kg | Duration (remarks, words) [3]: most long acting | Duration ([3]; remarks column, hours): 48 to 72 h | Strength of effect (remarks, words) [3]: most patent | ED50 ([5]; 6 h): 0.05 mg/kg

CS(=O)(=O)N[C@H]1CC[C@H](CN2CCC(=C3c4ccc(F)cc4Sc4ccc(C(F)(F)F)cc43)CC2)CC1 [Lu 16-049]
ED50 [6]: 1.7 mg/kg | ED50 [1, 7]: 1 mg/kg | ED50 [1, 8]: 0.49 mg/kg | Duration (remarks, words) [3]: long acting | Strength of effect (remarks, words) [3]: moderately strong | ED50 ([4]; po, read-out: Amphetamine antagonism ED50, p.o.): 2.5 mg/kg

COc1ccc2c(c1)C(=C1CCN(C[C@H]3CC[C@H](O)CC3)CC1)c1ccc(F)cc1S2 [Lu 16-052, 1-(trans-4-hydroxycyclohexylmethyl)-4-(2-methoxy-6-fluoro-9-thioxanthenylidene)-piperidine]
ED50 [1, 7]: 0.31 mg/kg | ED50 [1, 8]: 29 mg/kg | Duration (remarks, words) [3]: short acting | Strength of effect (remarks, words) [3]: moderately strong | ED50 [4, 9]: 0.56 mg/kg | ED50 [5, 10]: 0.23 mg/kg

CSc1ccc2c(c1)C(=C1CCN(C[C@H]3CC[C@H](O)CC3)CC1)c1ccccc1S2 [Lu 15-019, 1-(trans-4-hydroxycyclohexylmethyl)-4-(2-methylthio-9-thioxanthenylidene)-piperidine]
ED50 [1, 7]: 0.77 mg/kg | ED50 [1, 8]: > 40 mg/kg | Duration (remarks, words) [3]: short acting | Strength of effect (remarks, words) [3]: moderately strong | ED50 [4, 9]: 0.59 mg/kg | ED50 [5, 10]: 0.6 mg/kg
